Test results taken from patent US9586994B2, “CD44V6-derived peptides for treating breast cancer” (KARLSRUHER INSTITUT FÜR TECHNOLOGIE, priority 2012, dated 2017).
No end group written: not given here. MeO‑PEG‑COOH = methoxy-PEG carboxylic acid, 750 or 2000 Da

Key:
HT29 colon cancer cells = assay: Scatter assay, HGF-induced HT29 colon cancer cells; assay type: cell-based, human; conditions: HGF 10 ng/ml, pre-incubated with peptide
Procedure: A scatter assay was performed additionally. HT29 colon cancer cells were grown in medium containing 10% FCS. One day after seeding, the cells were starved. On the third day, the cells were induced with HGF (10 ng/ml) and pre-incubated with either no peptide, ctrl-peptides (SEQ ID NO: 15), non-pegylated v6-peptides (SEQ ID NO: 11) or the pegylated peptides, namely PEG-rat control peptide and PEG-rat CD44v6 peptide.

CD44v6 [1] = assay: HGF-induced activation of Met and ERK in L3.6pl cells (Western blot); assay type: cell-based, human
Procedure: (§1) Serum-starved cells (24 hours) were induced with the growth factor HGF (10 ng/mL) at 37° C. for 5 minutes. Where indicated, the cells were treated with peptides (100 ng/ml) prior to induction at 37° C. for 10 minutes (100 ng/mL CD44v6 peptide or control peptide). Following the induction with HGF, cells were washed with ice-cold phosphate-buffered saline (PBS). To detect activated Met and ERK, cells were lysed in sodium dodecyl sulfate (SDS)—sample buffer containing 100 mM dithiothreitol (DTT), boiled and subjected to western blot analysis using antibodies against phospho-Met and ERK. The loading controls were performed on the same blot after stripping (62.5 mM Tris, pH 6.8, 2% SDS, 0.8% DTT) by probing with the Met respectively Erk antibody. Blots were stained using the enhanced chemiluminescence system (Thermo Fisher Scientific, Schwerte, Germany). Bands in western blot analysis were quantified with the program Image J (National Institutes of Health).
To expand the studies to human pancreatic tumors, the highly metastatic human pancreatic carcinoma cells L3.6pl (Bruns, et al. Neoplasia (1999), 1(1):50-62) were investigated. These cells originate from the […] cells that have been passaged several times in the liver and the pancreas, a step that rendered them more and more metastatic. It was confirmed that Met is dependent on CD44v6 for its activation and signaling in these cells (FIG. 19A). The L3.6pl cells were treated with HGF in the presence or absence of a human v6 peptide of SEQ ID NO: 2 or SEQ ID NO:6 and Met activation and downstream signaling to ERK was measured. Phosphorylation of both Met and ERK was inhibited by the human v6 peptide. Treatment with a corresponding rat v6 peptide (ctrl peptide, SEQ ID NO: 10 or 11) had no influence on receptor activation and signal transduction (FIG. 19A).
The contribution of CD44v6 to Met signaling in the human epithelial pancreatic cancer cells L3.6pl (derived from Colo 357), the cervix carcinoma cells HeLa and the colon cancer cells HT29 were analysed using the CD44v6 peptide (v6 14mer; v6 5mer tested as well, data not shown).

BSp73ASs6 cells [2] = assay: Rat syngeneic model, subcutaneous BSp73ASs6 tumors, treatment from one week (metastasis formation); assay type: in vivo; conditions: rats, s.c. BSp73ASs6
Procedure: In the case of the rat syngeneic model, 1×10^6 pancreatic cells (BSp73AS and its transfectants) were subcutaneously injected into the right posterior flank of the animals. Tumors developed for four weeks. During this time period animals injected with BSp73ASs6 cells expressing Met-shRNA or control-shRNA received doxycycline in the drinking water. At the end of the experiment, primary tumors were isolated. Lungs and axillary lymph nodes were analyzed. The tissues were incubated for 24 h in a zinc-fixative (0.5 g calcium acetate, 5.0 g zinc acetate, 5.0 g zinc chloride, in 1 L 0.1 M Tris pH 7.4) and embedded in paraffin for further analysis. In case of peptide or antibody treatment tumors developed for one week before the first treatment. Where indicated, animals received 200 μg of peptide or antibody per injection three times per week for four weeks. Tumor growth was monitored weekly using a caliper Animals were killed at day 28 or 30 after start of the treatment.
For histomorphological analysis paraffin-embedded sections of lungs were stained with hematoxylin and eosin and periodic acid-Schiff (H&E or PAS). Serial sections of the whole tissue blocks were examined by analyzing slices every 20 μm; in each slice, the presence and the extension of the metastatic deposit was assessed, according to the procedure routinely used by pathologists to evaluate the presence of micrometastases.
Rat peptides had the sequences KEKWFENEWQGKNP (SEQ ID NO: 10) and NEWQG (SEQ ID NO: 11). BSp73ASs6 cells were subcutaneously injected into syngeneic rats and rat CD44v6 peptides of SEQ ID NO: 10 or SEQ ID NO: 11 (or mouse control peptides) or the CD44v6 antibody (or IgGs as a control) were injected intra-tumoral or intravenously three times a week. […] This is compatible with the fact that also BSp73AS cells or BSp73ASv1-10Δv6 cells can induce the formation of primary tumors similarly to the v6 transfectants.

L3.6pl cells [3] = assay: Human orthotopic pancreatic cancer model, L3.6pl cells in nude mice, treatment from day 7; assay type: in vivo, mouse; conditions: L3.6pl orthotopic model; 5mer instead of 14mer
Procedure: In the case of the human orthotopic model, L3.6pl pancreatic carcinoma cells (passage 24-26) were suspended in Hank's balanced salt solution (Invitrogen, Karlsruhe, Germany) after trypsinization. The cells were injected orthotopically in the pancreas of male nude mice as described (Bruns C J et al. (1999) Neoplasia 1(1):50-62). Two groups of 15 mice each were injected i.p. 7 days later with either the human v6 peptide respectively rat control peptide (20 μg). For all experiments described and depicted herein either the rat 14mer control peptide or the human 14mer peptide were used. All experiments were then repeated with the rat 5mer control peptide or the human 5mer peptide (N-R-W-H-E, SEQ ID NO: 2). […] The injection was repeated three times per week for 21 days. Two days after the last treatment the animals were killed.
7 μm thick paraffin sections were deparaffinized and rehydrated. For P-Met staining antigen unmasking was achieved by boiling the slides in 1 mM EDTA pH 8.0 followed by incubation for 15 minutes at a sub-boiling temperature, for CD31 staining the sections were treated with Proteinase K (8 μg/ml) for […] at 37° C. For immunofluorescence staining of P-Met, unspecific binding was blocked with 5% goat serum (DAKO, Glostrup, Denmark) (diluted in 1×PBS/0.3% Triton X-100) for 60 minutes. In the case of immunohistochemistry, endogenous peroxidases were at first blocked with 3% H2O2 in PBS followed by incubation with biotin blocking system (Dako, Glostrup, Denmark) and then unspecific binding was inhibited by incubation with 5% FCS in PBS was used for blocking. The sections were incubated with the P-Met antibody (D26, dilution 1:50 in 1×PBS/1% BSA/0.3% Triton X-100), Met antibody (C-28, dilution 1:50), GFP antibody (sc-101525, dilution 1:50) or CD31 antibody (5 μg/ml) over night or VFF18 (5 μg/ml) o/n at 4° C. After washing in PBS the sections were incubated with Alexa Fluor R 546 goat anti-rabbit (in case of immunofluorescence P-Met and Met staining, dilution 1:500) or a biotinylated secondary antibody (for immunohistochemical stainings rabbit anti-rat antibody for VFF18 and CD31, goat anti-rabbit for P-Met, cleaved Caspase-3 and cleaved Caspase-8 and rabbit anti-mouse for GFP, dilution 1:500) for 45 minutes. For DAB staining the sections were treated with a streptavidin-peroxidase conjugate (Dako, Glostrup, Denmark) and developed with DAB (3,3′-diaminobenzidine) substrate system (3,3′-diaminobenzidine; Biozol, Eching, Germany) For immunofluorescence DAPI was used for nuclear staining.
To test the effect of the peptide on tumor growth and metastasis formation the L3.6pl cells were orthotopically injected into the pancreas of immunosuppressed mice (NCI-nu). […] The primary tumor expresses a high amount of CD44v6 (FIG. 19B). […] Indeed, human HGF in a concentration of 3375 pg/ml was detected in the supernatant (see Material and Methods) after 5 days of culture (data not shown).

CD44v6 [4] = assay: Activation assay with pegylated peptides: HGF-induced Met and ERK activation in BSp73ASs6 cells; assay type: cell-based, rat
Procedure: The PEG-control peptide and PEG-rat CD44v6 peptide were compared for their ability to block HGF induced activation of the receptor tyrosine kinase Met and ERK.
Rat pancreatic cancer cells BSp73ASs6 (also designated Ass6) were incubated for 10 min at 37° C. with either ctrl-peptides (SEQ ID NO: 15), non-pegylated v6-peptides (SEQ ID NO: 11) and increasing concentrations of the pegylated peptides, namely PEG-rat control peptide and PEG-rat CD44v6 peptide, before induction with HGF (10 ng/ml; 5 min at 37° C.).
Activation of ERK and Met was determined by standard SDS and Western Blotting techniques using a phospho-Met and phospho-Erk specific antibody (phospho-Met clone D16 cell signaling, phospho-Erk p42/44 cell signaling)

CD44v6 [5] = assay: HGF-induced Met/Erk activation in BSp73ASs6 cells with DY681-labeled peptides; assay type: cell-based, rat; conditions: FIG. 18A right side, activation of Erk determined
Procedure: as §1
In order to test the specificity of the binding of CD44v6 peptides to the tumor site and to the metastases and to estimate the binding kinetics in vivo, near infrared fluorescence (NIRF) imaging with the Optix MX2 was. For this purpose two CD44v6 peptides were labeled with the fluorophore DY681: a rat specific one, rv6 pep Dy681 and a mouse specific one, mv6 pep Dy681, as a control.

L3.6pl cells [6] = assay: Staining of fixed L3.6pl cells with DY681-labeled peptides (confocal microscopy); assay type: binding, human; conditions: DY681-labeled peptide
Procedure: (§2) ASs6 or L3.6pl cells were seeded at 5,000 cells/well of a Lab-TekR Chamber Slide™ (Nunc, Napierville, Ill., USA). On the following day the cells were washed with cold PBS and fixed with 4% Formalin for 30 min at RT. Unspecific binding was blocked with 1% BSA in PBS for 1 hour at RT. The cells were incubated for 1 hour with the DY681-labeled peptides. After three washing steps with PBS the cover slips were mounted with Fluorescence Mounting Medium (Dako, Glostrup, Denmark) and the immunofluorescence was measured by a laser scanning confocal microscope Leica TCS2 SP2 (Exton, Pa., USA) and processed using Leica confocal software. A 20× objective was used for imaging.

BSp73ASs6 tumors = conditions: rat
Source text: To avoid autofluorescence of fur, rats were shaved around the tumor prior to imaging. Subsequently, animals were anesthetized using 2% isoflurane and gently fixed on the devices' heated plate for the entire time of data acquisition. To reduce fluorescence background, rats were fed with chlorophyll-reduced food (Provimi Kliba AG, Kaiseraugst, Switzerland) for one week prior NIRF imaging. All in vivo analyses were preceded by native scans of animals without any injection of the fluorescent probe. For in vivo analysis, rats were injected with 200 μg DY681-labeled rat v6 11 mer peptide or the human v6 11 mer peptide via the tail vein. Controls were injected with the equal amount of DY681-labeled mouse v6 11mer peptide. […] All peptides were labeled with the fluorescent dye DY681. Data were acquired at the indicated time after injection of the peptides. […]
DY681 fluorescence was measured using excitation at 670 nm in combination with a 700 nm long-pass emission filter. […] Data sets were analyzed with OptiView (ART).
For in vivo experiments, BSp73ASs6 cells were injected subcutaneously into syngeneic rats. […] The accumulation of the fluorescence was measured in the tumor region by Optix MX2 at the indicated time points. […] Then, in vivo binding kinetics of the Dy681-labeled v6 peptides to the subcutaneous tumors were determined. […]

BSp73ASs6 cells [7] = assay: Staining of fixed BSp73ASs6 cells with DY681-labeled peptides (confocal microscopy); assay type: binding, rat; conditions: 1 hour with DY681-labeled peptide
Procedure: as §2

L3.6pl tumors = assay: In vivo and ex vivo imaging (Pearl Imager) of mice with L3.6pl tumors; parameters: species or system mouse; conditions: 24 h after injection
Procedure: In vivo imaging of the mice with the L3.6pl tumors was performed using the Pearl™ Imager (LI-COR Biosciences, Bad Homburg, Germany) The system uses two lasers (685 and 785 nm) for excitation and a charge-coupled device detector for signal detection. The laser excitation enables a deep tissue penetration. With the near-infrared detection a high sensitivity due to the reduced tissue auto-fluorescence is achieved. In order to standardize the images we made use of the Pearl Cam Software. The animals were fed with chlorophyll-reduced food to reduce the fluorescence background one week before imaging (Regime 210, safe-diets, Augy, France). Prior to imaging the mice were anesthetized with 2.0% isoflurane. Animals were placed on the heated plate of the imager and continuous delivery of isoflurane was achieved through a nose cone in the imaging drawer. Images were captured at white light, 700 and 800 nm Animals were imaged prior to i.v. peptide injection and 24 h after injection with either DY681-labeled human v6 peptide or DY681-labeled rat v6 peptide as control Immediately after each imaging session animals were killed, tumor, liver and spleen isolated and scanned ex vivo at white light, 700 and 800 nm.
Then, the specificity of binding of the human CD44v6 peptide to the tumor in vivo was examined using the small animal imaging system Pearl Impulse. […]

[8] = peptide before induction with 10 ng/ml HGF
[9] = peptide 10 min 37° C., HGF 10 ng/ml 5 min

“NEWQG [SEQ ID NO: 11, rat CD44v6 5mer peptide]” was tested, and the “Dissociation and migration of cells away from cell cluster (scatter)” value (HT29 colon cancer cells) was “lead to dissociation and migration of cells away from these cell cluster”, the “HGF-induced phosphorylation/activation of ERK” value (CD44v6 [1]; [8]) was “no influence” and the “HGF-induced phosphorylation/activation of Met” value (CD44v6 [1]; [8]) was “no influence”. The “Metastasis (axillary lymph nodes and lungs)” value (BSp73ASs6 cells [2]; 200 μg per injection i.t. or i.v., three times a week, four weeks, start after one week) was “completely inhibited metastasis”, the “Metastasis and micro-metastasis in lung sections (PAS and H&E histology)” value (BSp73ASs6 cells [2]; 200 μg three times a week) was “no metastasis nor micro-metastasis could be detected” and the “Outgrowth of primary tumors” value (BSp73ASs6 cells [2]; treatment for 28 days) was “not influenced”. The “Outcome of all experiments repeated with 5mer peptides, compared with 14mer” value (L3.6pl cells [3]) was “same results as for the 14mer peptides”.

For “PEG-NEWQG ({MeO‑PEG‑COOH}-NEWQG; also: PEG 750 or 2000 Da) [PEG-rat CD44v6 peptide, rat 5mer NEWQG coupled to MeO-PEG-COOH (750 Da and 2000 Da)]”, the “Efficiency of inhibition of ERK, pegylated vs. non-pegylated peptides” value (CD44v6 [4]; HGF 10 ng/ml) was “even more efficient”, the “HGF dependent activation of ERK” value (CD44v6 [4]; [9]) was “efficient in inhibiting” and the “HGF dependent activation of Met” value (CD44v6 [4]; [9]) was “efficient in inhibiting”. For the same substance, the “Dissociation and migration of cells away from cell cluster (scatter)” value (HT29 colon cancer cells) was “lead to dissociation and migration of cells away from these cell cluster”.

With “WFENEWQGKNP (also: DY681 fluorescent dye label) [rv6 pep Dy681, rat 11mer labeled with the fluorescent dye DY681]” the “Met activation (HGF-induced) with DY681-labeled peptides” value (CD44v6 [5]) was “inhibited Met activation”, the “Binding to L3.6pl cells in cell culture” value (L3.6pl cells [6]) was “not” and the “Ex vivo fluorescence in excised tumors and lungs” value (BSp73ASs6 tumors) was “Fluorescence intensities could only be detected in tumors and in specific areas of the lungs”. For the same substance, the “Binding to BSp73ASs6 cells in tissue culture” value (BSp73ASs6 cells [7]) was “bound to BSp73ASs6 cells”.

For “WFGNRWHEGYR (also: DY681 fluorescent dye label) [labeled human v6 peptide, human 11mer labeled with the fluorescent dye DY681]”, the “Met activation (HGF-induced) with DY681-labeled peptides” value (CD44v6 [1]; FIG. 20A right side, activation of Erk determined) was “inhibited Met activation”, the “Ex vivo fluorescence of isolated organs (tumor, liver, spleen)” value (L3.6pl tumors; mice with L3.6pl tumors) was “binding not only to primary tumors but also to areas of the liver” and the “Accumulation of fluorescence in the tumor in vivo” value (L3.6pl tumors; mice with orthotopic L3.6pl tumors, 20 μg i.v.) was “accumulated specifically in the tumor”. For the same substance, the “Binding to L3.6pl cells in cell culture” value (L3.6pl cells [6]) was “bound to these cells in cell culture”.
